Reference: patent US11261189B2, “Substituted 2,4 diamino-quinoline as new medicament for fibrosis, autophagy and cathepsins B (CTSB), L (CTSL) and D (CTSD) related diseases” (Genoscience Pharma, priority 2018, dated 2022)
“Also recorded” adds a separate entry of the source. Counter-ions that a name gives are not always drawn.

System: autophagy flux (LC3-II) in HepG2 cell line
Assay: Autophagy flux, LC3-II immunoblot with/without Bafilomycin, HepG2 cell line
Assay type: cell-based
Settings: 4 hours and 24 hours of treatment
Description: Since compound 2-3 induced an inhibition of the proteolytic activity of cathepsins B, D and/or L (see example 1) supporting an inhibition of some lysosomal functions which can affect the cellular autophagy flux, the capacity of compound 2-3 to modulate the cellular autophagy processes and functions was evaluated in two Hepatocellular carcinoma (HCC) cell lines: Huh7 and HepG2. For this purpose, the accumulation of LC3-II (Light Chain 3 phosphatidylethanolamine conjugate) in presence or absence of compound 2-3 was analyzed using immunoblot analysis of LC3-II.
The HepG2 cell line was maintained in DMEM low glucose (Cat #21885025, ThermoFischer) containing 1% penicillin-streptomycin (Cat #P06-07100, Dutscher) and 10% FBS (Cat #SV30160.03C, Dutscher). The Huh7 cell line was maintained in DMEM high glucose (Cat #L0103-500, Dutscher) containing 1% penicillin-streptomycin (Cat #P06-07100, Dutscher) and 10% SVF (Cat #SV30160.03C, Dutscher). Cells lines were cultured at 37° C. with 5% CO2.
The day before the experiment, 6-well plates with 250,000 cells for HepG2 and 310,000 cells for Huh7 in 1.8 mL of medium per well were prepared. […]
After 4 hours and 24 hours of cells treatment, the medium was removed from each well. […] Total protein concentration was assessed using the BCA reagent (Cat #23227, ThermoFischer) and cellular lysates were stored at −80° C. until western-blot analysis. […]

Question: `CC(C)(C)NC1CCN(c2cc(NCc3ccc(Cl)cc3)nc3ccccc23)CC1` [2-3, 2-(4-chlorobenzylamino)-4-(4-tert-butylaminopiperidin-1-yl)-quinoline Hydrochloride Salt] was tested. Which “accumulation of the LC3-II form” value did it give?
Answer: significantly induced, in a dose-dependent manner, an accumulation of the LC3-II form

Question: What about the “autophagy flux (LC3-II Baf+/Baf− ratio)” value (Hydrochloride Salt) of the same molecule?
Answer: inhibition; also recorded: inhibitor of the autophagy flux
